The source of these data is patent publication US7067665B2, “Oxybenzamide derivatives useful for inhibiting factor Xa or Vlla” (Sanofi-Aventis Deutschland GmbH, priority 2000, dated 2006).

As a reminder, the Ki is the dissociation constant of the complex between target and ligand, obtained from inhibition or displacement.

In one experiment the target is T1, human factor Xa (Homo sapiens, UniProt P00742).
T1 construct: 25 μl human factor Xa (Enzyme Research Laboratories, Inc; South Bend, Ind.); purchased Enzyme Research Laboratories, Inc; South Bend, Ind
T1 sequence (P00742 235-488 limits assumed): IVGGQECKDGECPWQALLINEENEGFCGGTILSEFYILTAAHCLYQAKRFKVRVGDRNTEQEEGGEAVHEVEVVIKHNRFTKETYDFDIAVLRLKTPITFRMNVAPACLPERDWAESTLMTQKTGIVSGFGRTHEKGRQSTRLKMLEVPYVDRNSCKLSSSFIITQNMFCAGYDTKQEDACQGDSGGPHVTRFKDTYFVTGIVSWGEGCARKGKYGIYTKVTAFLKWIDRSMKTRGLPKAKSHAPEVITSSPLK
T1 sequence (P00742 41-179 partner limits assumed): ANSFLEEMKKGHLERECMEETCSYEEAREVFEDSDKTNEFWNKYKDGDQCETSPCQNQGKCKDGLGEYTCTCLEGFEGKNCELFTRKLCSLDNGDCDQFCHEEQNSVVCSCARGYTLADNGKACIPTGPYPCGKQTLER
Description: Factor Xa chromogenic assay (substrate S-2765).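 Note: purified enzyme, compound preincubated with the enzyme for 10 min before substrate addition starts the reaction.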 Format: biochemical. The settings on record: inhibition constant for inhibition of factor Xa; IC50 corrected for substrate competition; 25° C., enzyme 0.5 nM, substrate 140 μM; read-out: Ki(FXa).
As to `COc1ccc(C(=O)N2CCN(Cc3ccccn3)CC2)cc1OCCc1ccc(Cl)cc1Cl` [Example 2, {3-[2-(2,4-Dichlorophenyl)-ethoxy]-4-methoxy-phenyl}-(4-pyridin-2-ylmethyl-piperazin-1-yl)-methanone], the Ki is 1.54 µM.
Consider `COc1ccc(C(=O)N2CCN(c3ccncc3)CC2)cc1OCCc1ccc(Cl)cc1Cl` [Example 3, {3-[2-(2,4-Dichlorophenyl)-ethoxy]-4-methoxy-phenyl}-(4-pyridin-4-yl-piperazin-1-yl)-methanone], for which the inhibitory constant (Ki) came out at 5.41 µM.
For `COc1cc(C(=O)N2CCN(Cc3ccncc3)CC2)cc(OCCc2ccc(Cl)cc2Cl)c1OC` [Example 5, {3-[2-(2,4-Dichloro-phenyl)-ethoxy]-4,5-dimethoxy-phenyl}-(4-pyridin-4-ylmethyl-piperazin-1-yl)-methanone], the Ki turned out to be 0.167 µM.
Same read-out and setting: the figure for `CCOc1ccc(C(=O)N2CCN(Cc3ccncc3)CC2)cc1OCCc1ccc(Cl)cc1Cl` [Example 9, {3-[2-(2,4-Dichloro-phenyl)-ethoxy]-4-ethoxy-phenyl}-(4-pyridin-4-ylmethyl-piperazin-1-yl)-methanone] is 0.306 µM; for `COc1ccc(C(=O)N2CCN(Cc3ccc(C#N)cc3)CC2)cc1OCCc1ccc(Cl)cc1Cl` [Example 11, 4-(4-{3-[2-(2,4-Dichloro-phenyl)-ethoxy]-4-methoxy-benzoyl}-piperazin-1-ylmethyl)-benzonitrile] it is 1.38 µM.
For the compound `COc1ccc(C(=O)N2CCN(CC(=O)N(C)C)CC2)cc1OCCc1ccc(Cl)cc1Cl` [Example 13, 2-(4-{3-[2-(2,4-Dichlorophenyl)-ethoxy]-4-methoxy-benzoyl}-piperazin-1-yl)-N,N-dimethyl-acetamide], the inhibition constant (Ki) worked out at 1.41 µM.
For the compound `COc1ccc(C(=O)N2CCN(CC(=O)N3CCCC3)CC2)cc1OCCc1ccc(Cl)cc1Cl` [Example 14, 2-(4-{3-[2-(2,4-Dichlorophenyl)-ethoxy]-4-methoxy-benzoyl}-piperazin-1-yl)-1-pyrrolidin-1-yl-ethanone], the inhibitory constant (Ki) is 2.18 µM.
Same read-out and setting: the figure for `COc1ccc(C(=O)NCCCN2CCCCC2)cc1OCCc1ccc(Cl)cc1Cl` [Example 15, 3-[2-(2,4-Dichlorophenyl)-ethoxy]-4-methoxy-N-(3-piperidin-1-yl-propyl)-benzamide] is 2.22 µM; for `COc1ccc(C(=O)NCCN2CCCCC2)cc1OCCc1ccc(Cl)cc1Cl` [Example 16, 3-[2-(2,4-Dichloro-phenyl)-ethoxy]-4-methoxy-N-(2-piperidin-1-yl-ethyl)-benzamide] it is 4.22 µM; for `Cc1ccc(C(=O)N2CCN(Cc3cc[n+]([O-])cc3)CC2)cc1OCCc1ccc(Cl)cc1Cl` [Example 17, {3-[2-(2,4-Dichloro-phenyl)-ethoxy]-4-methyl-phenyl}-[4-(1-oxy-pyridin-4-ylmethyl)-piperazin-1-yl]-methanone] it is 0.407 µM.
Consider `O=C(c1ccc(CO)c(OCCc2ccc(Cl)cc2Cl)c1)N1CCN(Cc2cc[n+]([O-])cc2)CC1` [Example 18, {3-[2-(2,4-Dichloro-phenyl)-ethoxy]-4-hydroxymethyl-phenyl}-[4-(1-oxy-pyridin-4-ylmethyl)-piperazin-1-yl]-methanone], for which the inhibition constant Ki was 6.2 µM.
As to `COc1ccc(C(=O)NCC2CC(c3ccncc3)=NO2)cc1OCCc1ccc(Cl)cc1Cl` (centres unmarked) [Example 24, 3-[2-(2,4-Dichloro-phenyl)-ethoxy]-4-methoxy-N-(3-pyridin-4-yl-4,5-dihydro-isoxazol-5-ylmethyl)-benzamide], the inhibition constant (Ki) worked out at 1.13 µM.
As to `COc1ccc(C(=O)NCC2CC(c3cc[n+]([O-])cc3)=NO2)cc1OCCc1ccc(Cl)cc1Cl` (centres unmarked) [Example 28, 3-[2-(2,4-Dichloro-phenyl)-ethoxy]-N-[3-(1-hydroxy-pyridin-4-yl)-4,5-dihydro-isoxazol-5-ylmethyl]-4-methoxy-benzamide], the Ki worked out at 0.96 µM.
For `COc1ccc(C(=O)NCC2CCC(CN)CC2)cc1OCCc1ccc(Cl)cc1Cl` (centres unmarked) [Example 31, N-(4-Aminomethyl-cyclohexylmethyl)-3-[2-(2,4-dichloro-phenyl)-ethoxy]-4-methoxy-benzamide], the inhibition constant (Ki) stood at 9.34 µM.
For the compound `COc1ccc(C(=O)NCC2CCN(C3CCCC3)CC2)cc1OCCc1ccc(Cl)cc1Cl` [Example 54, N-(1-Cyclopentyl-piperidin-4-ylmethyl)-3-[2-(2,4-dichloro-phenyl)-ethoxy]-4-methoxy-benzamide], the Ki was determined as 6.52 µM.
As for `COc1ccc(C(=O)NCC2CCN(C3CCCCC3)CC2)cc1OCCc1ccc(Cl)cc1Cl` [Example 56], the Ki is 4.33 µM.
As to `COc1ccc(C(=O)NCC2CCN(C3CCCCCC3)CC2)cc1OCCc1ccc(Cl)cc1Cl` [Example 57], the Ki was 6.22 µM.
In the case of `COc1ccc(C(=O)NCC2CCN(c3cc[n+]([O-])cc3)CC2)cc1OCCc1ccc(Cl)cc1Cl` [Example 66], the Ki is 1.48 µM.
`COc1ccc(C(=O)NCC2CCN(c3ccccn3)CC2)cc1OCCc1ccc(Cl)cc1Cl` [Example 68, 3-[2-(2,4-Dichloro-phenyl)-ethoxy]-4-methoxy-N-(3,4,5,6-tetrahydro-2H-[1,2′]bipyridinyl-4-ylmethyl)-benzamide]: the Ki was found to be 3.04 µM.
With `O=C(NCC1CCN(c2ccncc2)CC1)c1cc(OCCc2ccc(Cl)cc2Cl)ccc1[N+](=O)[O-]` [Example 84], the Ki was 4.88 µM.

Staying with this experiment, now noted: read-out: Ki(FXa).
Take `Cc1ccc(C(=O)N2CCN(Cc3ccncc3)CC2)cc1OCCc1ccc(Cl)cc1Cl` [Example 4, {3-[2-(2,4-Dichlorophenyl)-ethoxy]-4-methyl-phenyl}-(4-pyridin-4-ylmethyl-piperazin-1-yl)-methanone]: the Ki was 0.298 µM.
On to `COc1ccc(C(=O)N2CCN(Cc3ccc(F)cc3)CC2)cc1OCCc1ccc(Cl)cc1Cl` [Example 12, {3-[2-(2,4-Dichlorophenyl)-ethoxy]-4-methoxy-phenyl}-[4-(4-fluorobenzyl)-piperazin-1-yl]-methanone], for which the inhibitory constant (Ki) amounted to 3.01 µM.
Consider `COc1cc(C(=O)N2CCN(Cc3ccncc3)CC2)cc(OCCc2ccc(Cl)cc2Cl)c1Br` [Example 19, {4-Bromo-3-[2-(2,4-dichlorophenyl)-ethoxy]-5-methoxyphenyl}-(4-pyridin-4-ylmethyl-piperazin-1-yl)-methanone], for which the inhibitory constant (Ki) was found to be 0.095 µM.
With `O=C(NCC1CCN(c2ccncc2)CC1)c1cc(OCCc2ccc(Cl)cc2Cl)ccc1Cl` [Example 81], the Ki was determined as 0.241 µM.
Still for that read-out and setting: in the case of `O=C(NCC1CCN(c2ccncc2)CC1)c1cccc(OCCc2ccc(Cl)cc2Cl)n1` [Example 85] it was 0.304 µM.
Same read-out and setting: in the case of `O=C(NCC1CCN(c2ccncc2)CC1)c1cc(O)c(Br)c(OCCc2ccc(Cl)cc2Cl)c1` [Example 86] it was 0.026 µM.
Turning to `O=C(NCC1CCN(c2ccncc2)CC1)c1cncc(OCCc2ccc(Cl)cc2Cl)c1` [Example 87], the Ki stood at 0.07 µM.
In the case of `O=C(Nc1cccc(C(=O)NCC2CCN(c3ccncc3)CC2)c1)Nc1ccc(Cl)cn1` [Example 91, 3-[3-(5-Chloro-pyridin-2-yl)-ureido]-N-(3,4,5,6-tetrahydro-2H-[1,4′]bipyridinyl-4-ylmethyl)-benzamide], the Ki amounted to 1.39 µM.
As for `COc1ccc(C(=O)NCC2CCN(c3ccncc3)CC2)cc1OCc1cc(-c2ccc(Cl)s2)on1` [Example 93, 3-[5-(5-Chloro-thiophen-2-yl)-isoxazol-3-ylmethoxy]-4-methoxy-N-(3,4,5,6-tetrahydro-2H-[1,4′]bipyridinyl-4-ylmethyl)-benzamide], the Ki is 0.188 µM.
On the same count and under the same terms, the figure for `COc1ccc(C(=O)NCC2CCN(c3ccncc3)CC2)cc1Oc1nc2ccc(Cl)cc2s1` [Example 94] is 0.76 µM; for `COc1ccc(C(=O)NCC2CCN(c3ccncc3)CC2)cc1NS(=O)(=O)c1cc2ccc(Cl)cc2s1` [Example 97, 3-(6-Chloro-benzo[b]thiophene-2-sulfonylamino)-4-methoxy-N-(3,4,5,6-tetrahydro-2H-[1,4′]bipyridinyl-4-ylmethyl)-benzamide] it is 3.5 µM.
On to `O=C(NCC1CCN(c2ccncc2)CC1)c1cccc(S(=O)(=O)Nc2ccc(Cl)cn2)c1` [Example 99, 3-(5-Chloro-pyridin-2-ylsulfamoyl)-N-(3,4,5,6-tetrahydro-2H-[1,4′]bipyridinyl-4-ylmethyl)-benzamide], for which the Ki came to 3.71 µM.
As to `COc1ccc(C(=O)NCC2CCN(c3ccncc3)CC2)cc1NC(=O)Cc1ccc(Cl)cc1Cl` [Example 100, 3-[2-(2,4-Dichloro-phenyl)-acetylamino]-4-methoxy-N-(3,4,5,6-tetrahydro-2H-[1,4′]bipyridinyl-4-ylmethyl)-benzamide], the Ki is 0.298 µM.
Turning to `O=C(NCC1CCN(c2ccncc2)CC1)c1cc(OCCc2ccc(Cl)cc2Cl)c[n+]([O-])c1` [Example 102, 5-[2-(2,4-Dichloro-phenyl)-ethoxy]-1-oxy-N-(3,4,5,6-tetrahydro-2H-[1,4′]bipyridinyl-4-ylmethyl)-nicotinamide], the Ki was 0.636 µM.
Same read-out and setting: in the case of `COc1ccc(C(=O)NC2CCN(C3CCCCC3)CC2)cc1OCCc1ccc(Cl)cc1Cl` [Example 128, N-(1-Cyclohexyl-piperidin-4-yl)-3-[2-(2,4-dichloro-phenyl)-ethoxy]-4-methoxy-benzamide] it was 40.9 µM.
Turning to `COc1ccc(C(=O)NC2CCN(C3CCOCC3)CC2)cc1OCCc1ccc(Cl)cc1Cl` [Example 129], the inhibition constant (Ki) worked out at 25.2 µM.
For the compound `COc1ccc(C(=O)NCC2CCN(c3ccncc3)CC2)cc1OCC1(c2ccc(Cl)cc2)CC1` [Example 140], the inhibition constant Ki was determined as 69.5 µM.
For the compound `COc1ccc(C(=O)NCC2CCN(c3ccncc3)CC2)cc1OCCc1ccc(Cl)nc1` [Example 145], the Ki came to 0.591 µM.
On to `Cc1cc(N2CCC(CNC(=O)c3ccc(Cl)c(OCCc4ccc(Cl)nc4)c3)CC2)ccn1` [Example 167, 4-Chloro-3-[2-(6-chloro-pyridin-3-yl)-ethoxy]-N-(2′-methyl-3,4,5,6-tetrahydro-2H-[1,4′]bipyridinyl-4-ylmethyl)-benzamide], for which the Ki was 0.277 µM.
`COc1cc(C(=O)NCC2CCN(c3ccnc(C)c3)CC2)cc(OCCc2ccc(Cl)cc2Cl)c1Cl` [Example 168]: the Ki was determined as 0.024 µM.
As for `COc1ccc(C(=O)NCC2CCN(c3ccnc(C)c3)CC2)cc1OCCc1ccc(Cl)cc1` [Example 171], the inhibition constant (Ki) is 0.13 µM.
